Measurements reported in patent US20160318897A1, “AZOLE COMPOUNDS CARRYING AN IMINE-DERIVED SUBSTITUENT” (BASF SE, priority 2013, published 2016).

Experiments:
Assay type in all cases: in vivo
Anthonomus grandis = experiment: Boll weevil (Anthonomus grandis) microtiter plate insect diet test; conditions: 120 h, egg and larval mortality after 5 days, read-out: mortality in comparison with untreated controls
Procedure: B.1 Boll Weevil (Anthonomus grandis)
For evaluating control of boll weevil (Anthonomus grandis) the test unit consisted of 96-well-microtiter plates containing an insect diet and 5-10 A. grandis eggs.
(§1) The compounds were formulated using a solution containing 75% v/v water and 25% v/v DMSO. Different concentrations of formulated compounds were sprayed onto the insect diet at 5 μl, using a custom built micro atomizer, at two replications.
After application, microtiter plates were incubated at about 25±1° C. and about 75±5% relative humidity for 5 days. Egg and larval mortality was then visually assessed.

Dichromothrips corbetti = experiment: Orchid thrips (Dichromothrips corbetti) floral-immersion test; conditions: adult thrips, 72 hours after treatment, read-out: mortality in comparison with untreated controls
Procedure: B.2 Orchid Thrips (Dichromothrips Corbetti)
Dichromothrips corbetti adults used for bioassay were obtained from a colony maintained continuously under laboratory conditions. For testing purposes, the test compound is diluted in a 1:1 mixture of acetone:water (vol:vol), plus Kinetic HV at a rate of 0.01% v/v.
Thrips potency of each compound was evaluated by using a floral-immersion technique. All petals of individual, intact orchid flowers were dipped into treatment solution and allowed to dry in Petri dishes. Treated petals were placed into individual resealable plastic along with about 20 adult thrips. All test arenas were held under continuous light and a temperature of about 28° C. for duration of the assay. After 3 days, the numbers of live thrips were counted on each petal. The percent mortality was recorded 72 hours after treatment.

Aphis craccivora = experiment: Cowpea aphid (Aphis craccivora) spray test on potted cowpea plants; conditions: after 72 hours, read-out: mortality in comparison with untreated controls
Procedure: B.3 Cowpea Aphid (Aphis Craccivora)
The active compound is dissolved at the desired concentration in a mixture of 1:1 (vol:vol) distilled water:acetone. Surfactant (Kinetic HV) is added at a rate of 0.01% (vol/vol). The test solution is prepared at the day of use.
Potted cowpea plants were colonized with approximately 50-100 aphids of various stages by manually transferring a leaf tissue cut from infested plant 24 hours before application. Plants were sprayed after the pest population has been recorded. Treated plants are maintained on light carts at about 28° C. Percent mortality was assessed after 72 hours.

Ceratitis capitata = experiment: Mediterranean fruitfly (Ceratitis capitata) microtiter plate insect diet test; conditions: 120 h, egg and larval mortality after 5 days, read-out: mortality in comparison with untreated controls
Procedure: B.4 Mediterranean Fruitfly (Ceratitis capitata)
For evaluating control of Mediterranean fruitfly (Ceratitis capitata) the test unit consisted of microtiter plates containing an insect diet and 50-80 C. capitata eggs.
as §1
(§2) After application, microtiter plates were incubated at about 28±1° C. and about 80±5% relative humidity for 5 days. Egg and larval mortality was then visually assessed.

Heliothis virescens = experiment: Tobacco budworm (Heliothis virescens) microtiter plate insect diet test; conditions: 120 h, egg and larval mortality after 5 days, read-out: mortality in comparison with untreated controls
Procedure: B.5 Tobacco Budworm (Heliothis virescens)
For evaluating control of tobacco budworm (Heliothis virescens) the test unit consisted of 96-well-microtiter plates containing an insect diet and 15-25 H. virescens eggs.
The compounds were formulated using a solution containing 75% v/v water and 25% v/v DMSO. Different concentrations of formulated compounds were sprayed onto the insect diet at 10 μl, using a custom built micro atomizer, at two replications.
as §2

Myzus persicae = experiment: Green peach aphid (Myzus persicae) systemic test, artificial diet under membrane; conditions: 72 h, adult aphids, after 3 days, read-out: mortality in comparison with untreated controls
From the text: B.6 Green Peach Aphid (Myzus persicae)
For evaluating control of green peach aphid (Myzus persicae) through systemic means the test unit consisted of 96-well-microtiter plates containing liquid artificial diet under an artificial membrane.
The compounds were formulated using a solution containing 75% v/v water and 25% v/v DMSO. Different concentrations of formulated compounds were pipetted into the aphid diet, using a custom built pipetter, at two replications.
After application, 5-8 adult aphids were placed on the artificial membrane inside the microtiter plate wells. The aphids were then allowed to suck on the treated aphid diet and incubated at about 23±1° C. and about 50±5% relative humidity for 3 days. Aphid mortality and fecundity was then visually assessed.

Nephotettix virescens = experiment: Rice green leafhopper (Nephotettix virescens) spray test on rice seedlings; conditions: adults, after 72 hours, read-out: mortality in comparison with untreated controls
Procedure: B.7 Rice Green Leafhopper (Nephotettix virescens)
Rice seedlings were cleaned and washed 24 hours before spraying. The active compounds were formulated in 1:1 acetone:water (vol:vol), and 0.01% vol/vol surfactant (Kinetic HV) was added. Potted rice seedlings were sprayed with 5-6 ml test solution, air dried, covered with Mylar cages cages and inoculated with 10 adults. Treated rice plants were kept at about 28-29° C. and relative humidity of about 50-60%. Percent mortality was recorded after 72 hours.

Plutella xylostella = experiment: Diamond back moth (Plutella xylostella) cabbage leaf dip test; conditions: foliar, 3rd instar larvae, 72 hours after treatment, read-out: mortality in comparison with untreated controls
Procedure: B.8 Diamond Back Moth (Plutella xylostella)
The active compound is dissolved at the desired concentration in a mixture of 1:1 (vol:vol) distilled water:aceteone. Surfactant (Kinetic HV) is added at a rate of 0.01% (vol/vol). The test solution is prepared at the day of use.
Leaves of cabbage were dipped in test solution and air-dried. Treated leaves were placed in petri dishes lined with moist filter paper and inoculated with ten 3rd instar larvae. Mortality was recorded 72 hours after treatment. Feeding damages were also recorded using a scale of 0-100%.

Spodoptera eridania = experiment: Southern armyworm (Spodoptera eridania), 2nd instar larvae, foliar spray on lima bean; conditions: 96 h, 4 days after treatment, read-out: mortality in comparison with untreated controls
Procedure: B.9 Southern Armyworm (Spodoptera eridania), 2nd Instar Larvae
The active compounds were formulated by a Tecan liquid handler in 100% cyclohexanone as a 10,000 ppm solution supplied in tubes. The 10,000 ppm solution was serially diluted in 100% cyclohexanone to make interim solutions. These served as stock solutions for which final dilutions were made by the Tecan in 50% acetone:50% water (v/v) into 5 or 10 ml glass vials. A nonionic surfactant (Kinetic®) was included in the solution at a volume of 0.01% (v/v). The vials were then inserted into an automated electrostatic sprayer equipped with an atomizing nozzle for application to plants/insects.
Lima bean plants (variety Sieva) were grown 2 plants to a pot and selected for treatment at the 1st true leaf stage. Test solutions were sprayed onto the foliage by an automated electrostatic plant sprayer equipped with an atomizing spray nozzle. The plants were dried in the sprayer fume hood and then removed from the sprayer. Each pot was placed into perforated plastic bags with a zip closure. About 10 to 11 armyworm larvae were placed into the bag and the bags zipped closed. […] Mortality and reduced feeding were assessed 4 days after treatment, compared to untreated control plants.

CON=Cc1nn(-c2ccc(Cl)c(Cl)c2)cc1CN1CCC(C#N)CC1 (mixture of isomers) [IA-1, 1-[[1-(3,4-dichlorophenyl)-3-[(E/Z)-methoxyiminomethyl]pyrazol-4-yl]methyl]piperidine-4-carbonitrile]
> 75%: mortality at 2500 ppm (Anthonomus grandis) | mortality at 500 ppm (Dichromothrips corbetti) | mortality at 500 ppm (Aphis craccivora) | mortality at 2500 ppm (Ceratitis capitata) | mortality at 2500 ppm (Heliothis virescens) | mortality at 2500 ppm (Myzus persicae) | mortality at 500 ppm (Nephotettix virescens) | mortality at 500 ppm (Plutella xylostella) | mortality at 300 ppm (Spodoptera eridania)

N#CC1CCN(Cc2cn(-c3ccc(Cl)c(Cl)c3)nc2C=NOCC(F)(F)F)CC1 (mixture of isomers) [IA-2, 1-[[1-(3,4-dichlorophenyl)-3-[(E/Z)-2,2,2-trifluoroethoxyiminomethyl]pyrazol-4-yl]methyl]piperidine-4-carbonitrile]
> 75%: mortality at 2500 ppm (Anthonomus grandis) | mortality at 500 ppm (Dichromothrips corbetti) | mortality at 500 ppm (Aphis craccivora) | mortality at 2500 ppm (Ceratitis capitata) | mortality at 2500 ppm (Heliothis virescens) | mortality at 500 ppm (Nephotettix virescens) | mortality at 500 ppm (Plutella xylostella) | mortality at 300 ppm (Spodoptera eridania)
